Test results as given in patent publication US9376387B2 (priority 2013, dated 2016).
Read-outs that look alike come from different tables or passages of the source.

How the values were obtained:
[1] = target: T1, hAChE (human erythrocyte membranes as a AChE source) (Homo sapiens, UniProt P22303); experiment: acetylcholinesterase (AChE) activity, modified Ellman method; type: biochemical; details: acetylthiocholine iodide substrate, pH=7.4
T1 construct: human erythrocyte membranes as a AChE source; from tissue; host or cells: human erythrocyte membranes

EqBuChE = EqBuChE (Equus caballus, UniProt P81908); experiment: biochemical
[2] = hAChE IC50, modified Ellman method

T1 sequence (P22303 32-617 isoform P22303-2 limits assumed): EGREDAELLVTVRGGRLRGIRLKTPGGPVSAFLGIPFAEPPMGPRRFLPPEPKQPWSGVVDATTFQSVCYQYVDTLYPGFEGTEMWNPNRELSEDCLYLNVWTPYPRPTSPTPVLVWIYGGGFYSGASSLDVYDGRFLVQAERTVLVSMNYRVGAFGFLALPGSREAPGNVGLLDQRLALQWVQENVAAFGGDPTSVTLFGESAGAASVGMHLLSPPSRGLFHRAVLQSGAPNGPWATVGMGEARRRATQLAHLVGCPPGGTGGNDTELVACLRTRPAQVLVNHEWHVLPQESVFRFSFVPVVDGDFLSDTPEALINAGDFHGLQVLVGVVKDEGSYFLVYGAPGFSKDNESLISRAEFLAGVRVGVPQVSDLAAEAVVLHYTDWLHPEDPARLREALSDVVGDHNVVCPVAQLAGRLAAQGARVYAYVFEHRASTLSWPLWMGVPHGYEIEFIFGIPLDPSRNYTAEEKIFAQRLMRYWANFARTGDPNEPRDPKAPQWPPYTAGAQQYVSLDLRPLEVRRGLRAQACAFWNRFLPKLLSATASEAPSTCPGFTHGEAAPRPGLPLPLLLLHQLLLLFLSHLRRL
Sequence of EqBuChE (P81908 whole entry): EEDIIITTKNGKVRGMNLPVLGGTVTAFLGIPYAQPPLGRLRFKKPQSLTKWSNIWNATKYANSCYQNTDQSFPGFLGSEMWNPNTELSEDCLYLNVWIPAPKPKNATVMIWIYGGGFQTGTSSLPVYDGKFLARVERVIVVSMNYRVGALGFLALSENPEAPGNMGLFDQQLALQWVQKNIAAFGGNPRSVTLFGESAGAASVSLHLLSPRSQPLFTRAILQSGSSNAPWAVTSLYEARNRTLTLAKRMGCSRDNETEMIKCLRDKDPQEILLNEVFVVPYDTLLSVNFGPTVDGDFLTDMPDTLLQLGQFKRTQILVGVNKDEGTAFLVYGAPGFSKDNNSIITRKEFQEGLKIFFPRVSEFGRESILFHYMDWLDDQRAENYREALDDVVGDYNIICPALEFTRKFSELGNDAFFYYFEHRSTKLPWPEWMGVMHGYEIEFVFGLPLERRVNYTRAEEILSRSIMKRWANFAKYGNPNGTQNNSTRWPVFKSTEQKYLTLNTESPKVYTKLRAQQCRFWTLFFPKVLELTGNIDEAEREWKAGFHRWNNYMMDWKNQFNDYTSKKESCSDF

| SMILES | IC50 [1, 2] [nM] | IC50 (EqBuChE; EqBuChE IC50) [nM] | IC50 ([1]; modified Ellman method, read-out: hAChE IC50) [nM] | IC50 (EqBuChE; read-out: EqBuChE IC50) [nM] |
| --- | --- | --- | --- | --- |
| COc1ccc2c(c1)CCC(Cc1cc[n+](Cc3ccccc3F)cc1C(C)=O)C2=O (centres unmarked) [Compound 127, 2-[[3-acetyl-1-[(2-fluorophenyl)methyl]pyridin-1-ium-4-yl]methyl]-6-methoxy-tetralin-1-one bromide] | 43 | 489 | – | – |
| COc1ccc2c(c1)CCC(Cc1cc[n+](Cc3cccc(F)c3)cc1C(C)=O)C2=O (centres unmarked) [Compound 128, 2-[[3-acetyl-1-[(3-fluorophenyl)methyl]pyridin-1-ium-4-yl]methyl]-6-methoxy-tetralin-1-one bromide] | 55 | 412 | – | – |
| COc1ccc2c(c1)CCC(Cc1cc[n+](Cc3ccc(F)cc3)cc1C(C)=O)C2=O (centres unmarked) [Compound 129, 2-[[3-acetyl-1-[(4-fluorophenyl)methyl]pyridin-1-ium-4-yl]methyl]-6-methoxy-tetralin-1-one bromide] | 141 | 171 | – | – |
| COc1ccc2c(c1)CCC(Cc1cc[n+](Cc3ccc(C)cc3)cc1C(C)=O)C2=O (centres unmarked) [Compound 130, 2-[[3-acetyl-1-(p-tolylmethyl)pyridin-1-ium-4-yl]methyl]-6-methoxy-tetralin-1-one bromide] | 556 | 4140 | – | – |
| COc1ccc2c(c1)CCC(Cc1cc[n+](Cc3ccc(Cl)cc3)cc1C(C)=O)C2=O (centres unmarked) [Compound 131, 2-[[3-acetyl-1-[(4-chlorophenyl)methyl]pyridin-1-ium-4-yl]methyl]-6-methoxy-tetralin-1-one bromide] | 568 | 6090 | – | – |
| COc1cc2c(cc1OC)C(=O)C(Cc1cc[n+](Cc3ccccc3)cc1F)CC2 (centres unmarked) [Compound 133, 2[(1-benzyl-3-fluoro-pyridin-1-ium-4-yl)methyl]-6,7-dimethoxy-tetralin-1-one bromide] | 9.1 | 508 | – | – |
| COc1ccc2c(c1)CC(Cc1cc[n+](Cc3ccccc3C)cc1C(C)=O)C2=O (centres unmarked) [Compound 138, 2-[[3-acetyl-1-(o-tolylmethyl)pyridin-1-ium-4-yl]methyl]-5-methoxy-indan-1-one bromide] | 30 | 2990 | – | – |
| CC(=O)c1c[n+](Cc2ccccc2C)ccc1CC1Cc2cc3c(cc2C1=O)OCO3 (centres unmarked) [Compound 139, 6-[[3-acetyl-1-(o-tolylmethyl)pyridin-1-ium-4-yl]methyl]-5,6-dihydrocyclopenta[f][1,3]benzodioxol-7-one bromide] | 60 | 1620 | – | – |
| COc1cc2c(cc1OC)C(=O)C(Cc1cc[n+](Cc3ccccc3Cl)cc1Br)C2 (centres unmarked) [Compound 140, 2-[[3-bromo-1-[(2-chlorophenyl)methyl]pyridin-1-ium-4-yl]methyl]-5,6-dimethoxy-indan-1-one bromide] | 0.255 | 984 | – | – |
| COc1cc2c(cc1OC)C(=O)C(Cc1cc[n+](Cc3ccccc3C)cc1Br)C2 (centres unmarked) [Compound 141, 2-[[3-bromo-1-(o-tolylmethyl)pyridin-1-ium-4-yl]methyl]-5,6-dimethoxy-indan-1-one bromide] | 0.053 | 2290 | – | – |
| COc1cc2c(cc1OC)C(=O)C(Cc1cc[n+](Cc3cccc(Cl)c3)cc1C(C)=O)C2 (centres unmarked) [Compound 144, 2-[[3-acetyl-1-[(3-chlorophenyl)methyl]pyridin-1-ium-4-yl]methyl]-5,6-dimethoxy-indan-1-one bromide] | 3.2 | 3340 | – | – |
| COc1cc2c(cc1OC)C(=O)C(Cc1cc[n+](Cc3ccccc3)cc1Br)C2 (centres unmarked) [Compound 145, 2-[(1-benzyl-3-bromo-pyridin-1-ium-4-yl)methyl]-5,6-dimethoxy-indan-1-one bromide] | – | – | 0.36 | 1790 |
| COc1cc2c(cc1OC)C(=O)C(Cc1cc[n+](Cc3cccc(C)c3)cc1Br)C2 (centres unmarked) [Compound 146, 2-[[3-bromo-1-(m-tolylmethyl)pyridin-1-ium-4-yl]methyl]-5,6-dimethoxy-indan-1-one bromide] | 0.465 | 3860 | – | – |
| CC(=O)c1c[n+](Cc2ccccc2C)ccc1CC1Cc2cc(C)c(C)cc2C1=O (centres unmarked) [Compound 152, 2-[[3-acetyl-1-(o-tolylmethyl)pyridin-1-ium-4-yl]methyl]-5,6-dimethyl-indan-1-one bromide] | 37.7 | 262 | – | – |
| COc1cc2c(cc1OC)C(=O)C(CC1C=CN(Cc3ccccc3)C=C1C(C)=O)CC2 (centres unmarked) [Compound 162, 2-[(3-acetyl-1-benzyl-4H-pyridin-4-yl)methyl]-6,7-dimethoxy-tetralin-1-one] | 415 | 3970 | – | – |
| CC(=O)C1=CN(Cc2ccccc2C)C=CC1CC1Cc2cc(C)c(C)cc2C1=O (centres unmarked) [Compound 166, 2-[[3-acetyl-1-(o-tolylmethyl)-4H-pyridin-4-yl]methyl]-5,6-dimethyl-indan-1-one] | 653 | 1260 | – | – |
